Values quoted from earlier work in US10179134B2, “Polymeric nanoparticles in a thermosensitive gel for coital-independent vaginal prophylaxis of HIV” (Creighton University, priority 2012, dated 2019).

System: HeLa cells

Compound: O=C1Nc2ccc(Cl)cc2[C@@](C#CC2CC2)(C(F)(F)F)O1 [efavirenz]
- concentration above which toxic to the HeLa cells: higher than 25 μM
